Measured values taken from ChEMBL document CHEMBL1123236, “Cardiac glycosides. 7. Sugar stereochemistry and cardiac glycoside activity” (J Med Chem, 1986).

These molecules were tested against Sodium/potassium-transporting ATPase (assay: Inhibition of hog kidney Na+, K+-dependent ATPase). Conditions: read-out: I50.
Type: protein-complex assay, Sus scrofa
`C[C@]12CC[C@H](O[C@H]3O[C@H](CO)[C@@H](O)[C@H](O)[C@H]3O)C[C@H]1CC[C@@H]1[C@@H]2CC[C@]2(C)[C@@H](C3=CC(=O)OC3)CC[C@]12O` (stereo in doubt; 3c) showed an IC50 of 129 nM. In the case of `C[C@]12CC[C@H](O[C@@H]3O[C@@H](CO)[C@H](O)[C@@H](O)[C@H]3O)C[C@H]1CC[C@@H]1[C@@H]2CC[C@]2(C)[C@@H](C3=CC(=O)OC3)CC[C@]12O`, the IC50 is reported as 87 nM. For `C[C@@H]1O[C@@H](O[C@H]2CC[C@@]3(C)[C@H](CC[C@@H]4[C@@H]3CC[C@]3(C)[C@@H](C5=CC(=O)OC5)CC[C@]43O)C2)[C@H](O)[C@H](O)[C@H]1O` (stereo in doubt; form 1), the IC50 was 4.79 nM. With `C[C@]12CC[C@H](O[C@H]3O[C@H](CO)[C@@H](O)[C@H](O)[C@H]3O)C[C@H]1CC[C@@H]1[C@@H]2CC[C@]2(C)[C@@H](C3=CC(=O)OC3)CC[C@]12O` (stereo in doubt; 4a) the IC50 was 60.3 nM. `C[C@]12CC[C@H](O[C@H]3O[C@H](CO)[C@@H](O)[C@H](O)[C@H]3O)C[C@H]1CC[C@@H]1[C@@H]2CC[C@]2(C)[C@@H](C3=CC(=O)OC3)CC[C@]12O` (stereo in doubt; 4c) was tested, and the IC50 was 93.3 nM. `C[C@]12CC[C@H](O[C@H]3O[C@H](CO)[C@@H](O)[C@H](O)[C@H]3O)C[C@H]1CC[C@@H]1[C@@H]2CC[C@]2(C)[C@@H](C3=CC(=O)OC3)CC[C@]12O` (stereo in doubt; 4d) showed an IC50 of 10.5 nM. Work on `CC12CCC(O[C@H]3O[C@H](CO)[C@H](O)[C@H](O)[C@H]3O)CC1CCC1C2CC[C@]2(C)C(C3=CC(=O)OC3)CCC12O` (stereo in doubt; form 2) yielded an IC50 of 17.8 nM. `CC12CCC(O[C@H]3O[C@H](CO)[C@H](O)[C@H](O)[C@H]3O)CC1CCC1C2CC[C@]2(C)C(C3=CC(=O)OC3)CCC12O` (stereo in doubt; form 1) was tested, and the IC50 was 64.5 nM. Work on `C[C@H]1O[C@@H](O[C@H]2CC[C@@]3(C)[C@H](CC[C@@H]4[C@@H]3CC[C@]3(C)[C@@H](C5=CC(=O)OC5)CC[C@]43O)C2)C[C@H](O)[C@@H]1O` yielded an IC50 of 7.04 nM. With `C[C@]12CC[C@H](O[C@H]3O[C@H](CO)[C@@H](O)[C@H](O)[C@H]3O)C[C@H]1CC[C@@H]1[C@@H]2CC[C@]2(C)[C@@H](C3=CC(=O)OC3)CC[C@]12O` (stereo in doubt; 3d) the IC50 was 38.9 nM. Molecule `C[C@@H]1O[C@@H](O[C@H]2CC[C@@]3(C)[C@H](CC[C@@H]4[C@@H]3CC[C@]3(C)[C@@H](C5=CC(=O)OC5)CC[C@]43O)C2)[C@H](O)[C@H](O)[C@H]1O` (stereo in doubt; form 2) has an IC50 of 6.79 nM. Work on `C[C@]12CC[C@H](O[C@H]3O[C@H](CO)[C@@H](O)[C@H](O)[C@H]3O)C[C@H]1CC[C@@H]1[C@@H]2CC[C@]2(C)[C@@H](C3=CC(=O)OC3)CC[C@]12O` (stereo in doubt; 4b) yielded an IC50 of 16 nM. With `C[C@]12CC[C@H](O[C@@H]3O[C@@H](CO)[C@@H](O)[C@H](O)[C@@H]3O)C[C@H]1CC[C@@H]1[C@@H]2CC[C@]2(C)[C@@H](C3=CC(=O)OC3)CC[C@]12O` (stereo in doubt; form 2) the IC50 was 10.7 nM.
